Among the data in patent US12252524B2, “GIP/GLP1 co-agonist compounds” (Eli Lilly and Company, priority 2018, dated 2025) are Ki and EC50 values, retold here.

Numbered stars: 1 amine (or outer) side, 2 acyl side, 3 side chain; on linkers, the order of the positions; unused ones are H or OH. Square brackets hold non-standard residues; d marks the D form. Side chains are listed from the residue outwards. Peptide text beside a SMILES is read from it. * marks the point of attachment. C20 diacid = O=C(O)CCCCCCCCCCCCCCCCCCC(=O)*; C18 diacid = O=C(O)CCCCCCCCCCCCCCCCC(=O)*; γGlu = O=C(O)[C@H](CCC(=O)[*:2])N[*:1]; αMeF = C[C@](N)(Cc1ccccc1)C(=O)O; αMeL = CC(C)C[C@](C)(N)C(=O)O; AEEA = NCCOCCOCC(=O)O; Aib = CC(C)(N)C(=O)O

What is called Ki is the dissociation constant of the complex between target and ligand, obtained from inhibition or displacement. By EC50 is commonly meant the concentration needed to bring the measured effect to its halfway point.

The target in one experiment is human GLP-1R (Homo sapiens, UniProt P43220). In words: [125I]-GLP-1 binding (SPA), human GLP-1 receptor. More on the design: expressed in transfected cells; crude membranes. The note with it: read-out: hGLP1R Ki, (nM) (SEM, n). The method, boiled down: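 Frozen cell pellets are lysed on ice in hypotonic Tris buffer, pH 7.5, homogenized, and centrifuged to a membrane pellet resuspended at about 1 to 3 mg/mL. Binding is then measured in HEPES-based buffer at pH 7.4, and curves are fitted to give IC50 and Ki.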
Sequence of human GLP-1R (P43220 24-463): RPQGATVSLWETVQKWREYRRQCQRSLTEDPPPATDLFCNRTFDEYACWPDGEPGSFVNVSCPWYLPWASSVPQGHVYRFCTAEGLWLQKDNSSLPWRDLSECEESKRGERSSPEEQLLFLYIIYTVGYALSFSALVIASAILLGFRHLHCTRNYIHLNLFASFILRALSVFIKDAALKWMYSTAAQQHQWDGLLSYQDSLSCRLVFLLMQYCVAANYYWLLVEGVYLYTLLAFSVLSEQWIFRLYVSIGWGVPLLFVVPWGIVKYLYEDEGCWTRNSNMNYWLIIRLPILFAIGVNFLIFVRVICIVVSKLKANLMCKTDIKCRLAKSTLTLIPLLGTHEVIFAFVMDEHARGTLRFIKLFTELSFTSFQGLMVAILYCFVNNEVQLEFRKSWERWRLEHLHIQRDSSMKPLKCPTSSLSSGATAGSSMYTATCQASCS

The target of experiment [1] is T1, gastric inhibitory peptide receptor (GIPR) (Homo sapiens, UniProt P48546).
T1 sequence (P48546 22-466): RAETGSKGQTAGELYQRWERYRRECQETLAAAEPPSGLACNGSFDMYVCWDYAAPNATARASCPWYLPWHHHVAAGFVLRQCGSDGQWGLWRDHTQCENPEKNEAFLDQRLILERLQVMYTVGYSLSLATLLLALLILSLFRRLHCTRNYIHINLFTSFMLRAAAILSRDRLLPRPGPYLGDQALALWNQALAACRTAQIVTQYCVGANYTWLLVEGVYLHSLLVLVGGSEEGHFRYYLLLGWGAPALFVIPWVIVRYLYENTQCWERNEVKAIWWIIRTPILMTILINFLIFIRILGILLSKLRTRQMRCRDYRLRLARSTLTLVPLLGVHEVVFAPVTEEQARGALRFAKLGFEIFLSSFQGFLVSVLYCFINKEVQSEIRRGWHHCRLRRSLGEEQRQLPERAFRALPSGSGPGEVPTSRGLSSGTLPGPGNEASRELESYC
Put plainly: cAMP pharmacological functional assay in presence of casein, hGIPR. It counts as cell-based. The settings on record: HEK293 cells expressing hGIPR, 0.1% Casein, geometric mean; read-out: hGIPR cAMP Rel EC50 nM (SEM, n).

For experiment [2], the target named is human GLP-1 receptor (GLP-1R) (Homo sapiens, UniProt P43220). Put plainly: cAMP pharmacological functional assay in presence of casein, hGLP-1R. Type of experiment: cell-based. The note with it: HEK293 cells expressing hGLP-1R, 0.1% Casein, geometric mean; read-out: hGLP1R cAMP Rel EC50 nM (SEM, n).
Sequence of human GLP-1 receptor (GLP-1R) (P43220 24-463): as the sequence (P43220 24-463) above
The target of another experiment is T2, human Gcg receptor (Homo sapiens, UniProt P47871).
T2 construct: expressed in transfected cells; crude membranes
T2 sequence (P47871 26-477): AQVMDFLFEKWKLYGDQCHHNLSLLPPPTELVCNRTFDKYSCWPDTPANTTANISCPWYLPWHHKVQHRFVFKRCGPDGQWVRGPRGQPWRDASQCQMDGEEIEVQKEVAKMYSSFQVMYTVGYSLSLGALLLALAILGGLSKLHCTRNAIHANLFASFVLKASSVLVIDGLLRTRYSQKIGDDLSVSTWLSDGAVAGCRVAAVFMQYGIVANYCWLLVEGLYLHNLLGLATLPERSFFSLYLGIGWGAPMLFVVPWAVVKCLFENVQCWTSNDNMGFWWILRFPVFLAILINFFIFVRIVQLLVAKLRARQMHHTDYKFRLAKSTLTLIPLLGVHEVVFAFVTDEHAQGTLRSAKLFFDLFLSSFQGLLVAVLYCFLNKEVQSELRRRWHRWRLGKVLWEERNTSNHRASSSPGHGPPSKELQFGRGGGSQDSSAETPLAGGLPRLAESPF
In words: [125I]-Glucagon binding (SPA), human Gcg receptor. The settings on record: read-out: hGLcgR Ki, nM (SEM, n). The method, boiled down:
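Scintillation counts are taken after membranes and WGA beads incubate and settle for 12 hours at room temperature. Buffer is 25 mM HEPES, pH 7.4, with CaCl2, MgCl2, bacitracin and Tween-20. Ki values, from four-parameter IC50 fits, are geometric means over independent days.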

Another experiment concerns the target T3, human GIP receptor (Homo sapiens, UniProt P48546).
T3 construct: expressed in transfected cells; crude membranes
T3 sequence (P48546 22-466): T1 sequence (P48546 22-466)
In words: [125I]-GIP binding (SPA), human GIP receptor. The note with it: read-out: hGIPR Ki, nM (SEM, n).

On to `CC[C@H](C)[C@H](NC(=O)[C@H](CC(C)C)NC(=O)[C@H](Cc1ccc(O)cc1)NC(=O)[C@H](CCC(=O)O)NC(=O)[C@@H](NC(=O)[C@H](Cc1ccccc1)NC(=O)[C@H](C)NC(=O)[C@H](CCC(N)=O)NC(=O)[C@H](CCC(N)=O)NC(=O)[C@H](C)NC(=O)[C@H](CCCCNC(=O)COCCOCCNC(=O)COCCOCCNC(=O)CC[C@H](NC(=O)CCCCCCCCCCCCCCCCCCC(=O)O)C(=O)O)NC(=O)[C@H](CCC(=O)O)NC(=O)[C@H](CC(=O)O)NC(=O)[C@H](CC(C)C)NC(=O)[C@](C)(CC(C)C)NC(=O)[C@@H](NC(=O)[C@H](CO)NC(=O)[C@H](Cc1ccc(O)cc1)NC(=O)[C@H](CC(=O)O)NC(=O)[C@H](CO)NC(=O)[C@@H](NC(=O)[C@](C)(Cc1ccccc1)NC(=O)[C@@H](NC(=O)CNC(=O)[C@H](CCC(=O)O)NC(=O)C(C)(C)NC(=O)[C@@H](N)Cc1ccc(O)cc1)[C@@H](C)O)[C@@H](C)O)[C@@H](C)CC)[C@@H](C)CC)C(=O)N[C@@H](CCC(=O)O)C(=O)NCC(=O)NCC(=O)N1CCC[C@H]1C(=O)N[C@@H](CO)C(=O)N[C@@H](CO)C(=O)NCC(=O)N[C@@H](C)C(=O)N1CCC[C@H]1C(=O)N1CCC[C@H]1C(=O)N1CCC[C@H]1C(=O)N[C@@H](CO)C(N)=O` [Example 121] (H-Y[Aib]EGT[αMeF]TSDYSI[αMeL]LDEK([AEEA-AEEA-γGlu-C20 diacid])AQQAFIEYLIEGGPSSGAPPPS-NH2), for which the inhibition constant Ki is 3.16 nM at human GLP-1R, 51.9 nM on human Gcg receptor and 0.177 nM at human GIP receptor. The EC50 was found to be 0.076 nM in experiment [1] and 0.0849 nM in experiment [2].
In the same order, the values of `CC[C@H](C)[C@H](NC(=O)[C@H](CC(C)C)NC(=O)[C@H](Cc1ccc(O)cc1)NC(=O)[C@H](CCC(=O)O)NC(=O)[C@@H](NC(=O)[C@H](Cc1ccccc1)NC(=O)[C@H](C)NC(=O)C(C)(C)NC(=O)[C@H](CCC(N)=O)NC(=O)[C@H](C)NC(=O)[C@H](CCCCNC(=O)COCCOCCNC(=O)COCCOCCNC(=O)CC[C@H](NC(=O)CCCCCCCCCCCCCCCCC(=O)O)C(=O)O)NC(=O)[C@H](CCC(=O)O)NC(=O)[C@H](CC(=O)O)NC(=O)[C@H](CC(C)C)NC(=O)[C@H](CC(C)C)NC(=O)[C@@H](NC(=O)[C@H](CO)NC(=O)[C@H](Cc1ccc(O)cc1)NC(=O)[C@H](CC(=O)O)NC(=O)[C@H](CO)NC(=O)[C@@H](NC(=O)[C@H](Cc1ccccc1)NC(=O)[C@@H](NC(=O)CNC(=O)[C@H](CCC(=O)O)NC(=O)C(C)(C)NC(=O)[C@@H](N)Cc1ccc(O)cc1)[C@@H](C)O)[C@@H](C)O)[C@@H](C)CC)[C@@H](C)CC)C(=O)N[C@@H](CCC(=O)O)C(=O)NCC(=O)NCC(N)=O` [Example 269] (H-Y[Aib]EGTFTSDYSILLDEK([AEEA-AEEA-γGlu-C18 diacid])AQ[Aib]AFIEYLIEGG-NH2) are 7.1 nM, more than 1100 nM, 0.152 nM, 0.257 nM and 0.0595 nM.
In the same order, the values of `CC[C@H](C)[C@H](NC(=O)[C@H](CC(C)C)NC(=O)[C@H](Cc1ccc(O)cc1)NC(=O)[C@H](CCC(=O)O)NC(=O)[C@@H](NC(=O)[C@H](Cc1ccccc1)NC(=O)[C@H](C)NC(=O)C(C)(C)NC(=O)[C@H](CCC(N)=O)NC(=O)[C@H](C)NC(=O)[C@H](CCCCNC(=O)COCCOCCNC(=O)COCCOCCNC(=O)CC[C@H](NC(=O)CCCCCCCCCCCCCCCCCCC(=O)O)C(=O)O)NC(=O)[C@H](CCCCN)NC(=O)[C@H](CC(=O)O)NC(=O)[C@H](CC(C)C)NC(=O)[C@H](CC(C)C)NC(=O)[C@@H](NC(=O)[C@H](CO)NC(=O)[C@H](Cc1ccc(O)cc1)NC(=O)[C@H](CC(=O)O)NC(=O)[C@H](CO)NC(=O)[C@@H](NC(=O)[C@H](Cc1ccccc1)NC(=O)[C@@H](NC(=O)CNC(=O)[C@H](CCC(=O)O)NC(=O)[C@H](C)NC(=O)[C@@H](Cc1ccc(O)cc1)NC(C)=O)[C@@H](C)O)[C@@H](C)O)[C@@H](C)CC)[C@@H](C)CC)C(=O)N[C@@H](CCC(=O)O)C(=O)NCC(=O)NCC(=O)N1CCC[C@H]1C(=O)N[C@@H](CO)C(=O)N[C@@H](CO)C(=O)NCC(=O)N[C@@H](C)C(=O)N1CCC[C@H]1C(=O)N1CCC[C@H]1C(=O)N1CCC[C@H]1C(=O)N[C@@H](CO)C(N)=O` [Example 79] are 2.69 nM, 429 nM, 0.0313 nM, 0.0732 nM and 2.02 nM.
On to `CC[C@H](C)[C@H](NC(=O)[C@H](CCCCN)NC(=O)[C@H](CC(=O)O)NC(=O)[C@H](CC(C)C)NC(=O)[C@H](CC(C)C)NC(=O)[C@@H](NC(=O)[C@H](CO)NC(=O)[C@H](Cc1ccc(O)cc1)NC(=O)[C@H](CC(=O)O)NC(=O)[C@H](CO)NC(=O)[C@@H](NC(=O)[C@H](Cc1ccccc1)NC(=O)[C@@H](NC(=O)CNC(=O)[C@H](CCC(=O)O)NC(=O)C(C)(C)NC(=O)[C@@H](N)Cc1ccc(O)cc1)[C@@H](C)O)[C@@H](C)O)[C@@H](C)CC)C(=O)N[C@@H](C)C(=O)N[C@@H](CCC(N)=O)C(=O)NC(C)(C)C(=O)N[C@@H](C)C(=O)N[C@@H](Cc1ccccc1)C(=O)N[C@H](C(=O)N[C@@H](CCCCNC(=O)COCCOCCNC(=O)COCCOCCNC(=O)CC[C@H](NC(=O)CCCCCCCCCCCCCCCCCCC(=O)O)C(=O)O)C(=O)N[C@@H](Cc1ccc(O)cc1)C(=O)N[C@@H](CC(C)C)C(=O)N[C@H](C(=O)N[C@@H](CCC(=O)O)C(=O)NCC(=O)NCC(=O)N1CCC[C@H]1C(=O)N[C@@H](CO)C(=O)N[C@@H](CO)C(=O)NCC(=O)N[C@@H](C)C(=O)N1CCC[C@H]1C(=O)N1CCC[C@H]1C(=O)N1CCC[C@H]1C(=O)N[C@@H](CO)C(N)=O)[C@@H](C)CC)[C@@H](C)CC` [Example 34] (H-Y[Aib]EGTFTSDYSILLDKIAQ[Aib]AFIK([AEEA-AEEA-γGlu-C20 diacid])YLIEGGPSSGAPPPS-NH2), for which the Ki was 3.41 nM on human GLP-1R, 134 nM on human Gcg receptor and 0.0467 nM on human GIP receptor. The EC50 in experiment [1] came to 0.36 nM; in experiment [2] it was 1.56 nM.
As for `CC[C@H](C)[C@H](NC(=O)[C@H](CCCCN)NC(=O)[C@H](CC(=O)O)NC(=O)[C@H](CC(C)C)NC(=O)[C@H](CC(C)C)NC(=O)[C@@H](NC(=O)[C@H](CO)NC(=O)[C@H](Cc1ccc(O)cc1)NC(=O)[C@H](CC(=O)O)NC(=O)[C@H](CO)NC(=O)[C@@H](NC(=O)[C@H](Cc1ccccc1)NC(=O)[C@@H](NC(=O)CNC(=O)[C@H](CCC(=O)O)NC(=O)C(C)(C)NC(=O)[C@@H](N)Cc1ccc(O)cc1)[C@@H](C)O)[C@@H](C)O)[C@@H](C)CC)C(=O)N[C@@H](C)C(=O)N[C@@H](CCC(N)=O)C(=O)NC(C)(C)C(=O)N[C@@H](C)C(=O)N[C@@H](Cc1ccccc1)C(=O)N[C@H](C(=O)N[C@@H](CCC(=O)O)C(=O)N[C@@H](Cc1ccc(O)cc1)C(=O)N[C@@H](CC(C)C)C(=O)N[C@H](C(=O)N[C@@H](CCC(=O)O)C(=O)NCC(=O)NCC(=O)N1CCC[C@H]1C(=O)N[C@@H](CO)C(=O)N[C@@H](CCCCNC(=O)COCCOCCNC(=O)COCCOCCNC(=O)CC[C@H](NC(=O)CCCCCCCCCCCCCCCCCCC(=O)O)C(=O)O)C(=O)NCC(=O)N[C@@H](C)C(=O)N1CCC[C@H]1C(=O)N1CCC[C@H]1C(=O)N1CCC[C@H]1C(=O)N[C@@H](CO)C(N)=O)[C@@H](C)CC)[C@@H](C)CC` [Example 42] (H-Y[Aib]EGTFTSDYSILLDKIAQ[Aib]AFIEYLIEGGPSK([AEEA-AEEA-γGlu-C20 diacid])GAPPPS-NH2), the values for the Ki on human GLP-1R, at human Gcg receptor and at human GIP receptor were 13.2 nM, 160 nM and 0.0514 nM, respectively. For the same compound, the values for the EC50 in experiment [1] and in experiment [2] were 0.161 nM and 1.45 nM, respectively.
